# According to ChEMBL document CHEMBL1201862, “PubChem BioAssay data set” (2004):
# Activity calls are given as the source filed them.
# Columns and labels:
# [1] = growth suppression of beta-catenin-knockout colon cells, dose response, cell-based, HCT116, human colon tumor (AID 1045); format: functional;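 also: HCT116 colon tumor cells with beta catenin knocked out; cells exposed to compound for 60 hours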
# [2] = biological target: G-protein coupled receptor 35 (Homo sapiens, UniProt Q9HC97); experiment: GPR35 antagonists blocking zaprinast-driven arrestin recruitment, primary screen, imaging, U2OS, beta-arrestin-GFP, zaprinast agonist (AID 2058); format: functional;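 also: antagonist potency meaning inhibition of agonist-induced arrestin redistribution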
# [3] = biological target: G-protein coupled receptor 55 (Homo sapiens, UniProt Q9Y2T6); experiment: GPR55 antagonists blocking LPI-driven arrestin recruitment, primary screen, imaging, U2OS, beta-arrestin-GFP, LPI agonist (AID 2013); format: functional;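 also: antagonist potency measured as reduced agonist-driven arrestin aggregation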
# [4] = growth suppression of PTEN-null colon cells, dose response, cell-based, HCT116 PTEN knockout (AID 1047); format: functional;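 also: HCT116 colon tumor cells with PTEN knocked out; cells exposed to compound for 60 hours before readout; potency for loss of cell viability measured by luminescence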
# Protein RecA = biological target: T1, Protein RecA (Mycobacterium tuberculosis, UniProt P9WHJ3); experiment: Fluorescence Cell-Free Homogeneous Dose Retest to Identify Inhibitors of RecA-Intein Splicing Activity. [Related pubchem assays (depositor defined):AID2097, AID2223, AID489010, AID492950]; format: functional
# T1 sequence (P9WHJ3 whole entry): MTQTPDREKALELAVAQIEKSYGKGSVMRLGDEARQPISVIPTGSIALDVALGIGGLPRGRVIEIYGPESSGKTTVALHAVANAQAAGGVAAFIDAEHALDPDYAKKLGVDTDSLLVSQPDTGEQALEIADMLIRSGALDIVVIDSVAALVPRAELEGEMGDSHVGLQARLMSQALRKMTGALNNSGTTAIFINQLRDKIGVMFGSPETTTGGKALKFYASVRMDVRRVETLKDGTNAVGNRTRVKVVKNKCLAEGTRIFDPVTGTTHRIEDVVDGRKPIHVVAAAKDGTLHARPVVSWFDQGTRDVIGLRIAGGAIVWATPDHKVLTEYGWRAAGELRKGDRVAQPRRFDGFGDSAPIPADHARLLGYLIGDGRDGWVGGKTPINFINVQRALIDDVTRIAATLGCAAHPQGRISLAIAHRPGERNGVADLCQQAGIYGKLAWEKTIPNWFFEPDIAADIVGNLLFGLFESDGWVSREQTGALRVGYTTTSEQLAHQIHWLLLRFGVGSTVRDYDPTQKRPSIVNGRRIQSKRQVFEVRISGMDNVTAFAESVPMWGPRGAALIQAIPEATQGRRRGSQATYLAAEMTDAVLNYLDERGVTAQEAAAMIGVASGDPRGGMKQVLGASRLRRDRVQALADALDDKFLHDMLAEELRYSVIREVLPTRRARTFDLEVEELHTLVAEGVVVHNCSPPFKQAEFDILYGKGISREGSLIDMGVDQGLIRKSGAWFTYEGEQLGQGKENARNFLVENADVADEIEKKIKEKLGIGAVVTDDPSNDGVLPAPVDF
# Integrin alpha-4 = Integrin alpha-4 (Homo sapiens, UniProt P13612); experiment: VLA-4 integrin allosteric ligands, SAR follow-up, cell-based, LIBS antibody binding, flow cytometry (AID 488791); format: functional
# CAAX prenyl protease 2 [5] = biological target: T2, CAAX prenyl protease 2 (Homo sapiens, UniProt Q9Y256); experiment: human Rce1 protease inhibitors, dose response, biochemical, yeast membranes, quenched-peptide fluorescence, cherry-pick (AID 588849)
# T2 sequence (Q9Y256 whole entry): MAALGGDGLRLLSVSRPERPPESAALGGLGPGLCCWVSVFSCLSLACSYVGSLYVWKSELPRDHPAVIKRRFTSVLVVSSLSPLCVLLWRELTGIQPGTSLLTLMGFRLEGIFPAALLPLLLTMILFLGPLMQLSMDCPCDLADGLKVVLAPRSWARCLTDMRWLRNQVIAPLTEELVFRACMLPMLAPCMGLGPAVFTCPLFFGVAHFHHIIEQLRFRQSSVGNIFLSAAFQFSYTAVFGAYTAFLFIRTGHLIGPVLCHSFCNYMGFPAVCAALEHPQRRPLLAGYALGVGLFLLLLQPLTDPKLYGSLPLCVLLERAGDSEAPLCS
# [6] = biological target: T3, Replicative DNA helicase DnaB (Mycobacterium tuberculosis, UniProt P9WMR3); experiment: DnaB intein splicing inhibitors, dose response, biochemical, cell-free fluorescence (AID 449749); format: functional
# T3 sequence (P9WMR3 whole entry): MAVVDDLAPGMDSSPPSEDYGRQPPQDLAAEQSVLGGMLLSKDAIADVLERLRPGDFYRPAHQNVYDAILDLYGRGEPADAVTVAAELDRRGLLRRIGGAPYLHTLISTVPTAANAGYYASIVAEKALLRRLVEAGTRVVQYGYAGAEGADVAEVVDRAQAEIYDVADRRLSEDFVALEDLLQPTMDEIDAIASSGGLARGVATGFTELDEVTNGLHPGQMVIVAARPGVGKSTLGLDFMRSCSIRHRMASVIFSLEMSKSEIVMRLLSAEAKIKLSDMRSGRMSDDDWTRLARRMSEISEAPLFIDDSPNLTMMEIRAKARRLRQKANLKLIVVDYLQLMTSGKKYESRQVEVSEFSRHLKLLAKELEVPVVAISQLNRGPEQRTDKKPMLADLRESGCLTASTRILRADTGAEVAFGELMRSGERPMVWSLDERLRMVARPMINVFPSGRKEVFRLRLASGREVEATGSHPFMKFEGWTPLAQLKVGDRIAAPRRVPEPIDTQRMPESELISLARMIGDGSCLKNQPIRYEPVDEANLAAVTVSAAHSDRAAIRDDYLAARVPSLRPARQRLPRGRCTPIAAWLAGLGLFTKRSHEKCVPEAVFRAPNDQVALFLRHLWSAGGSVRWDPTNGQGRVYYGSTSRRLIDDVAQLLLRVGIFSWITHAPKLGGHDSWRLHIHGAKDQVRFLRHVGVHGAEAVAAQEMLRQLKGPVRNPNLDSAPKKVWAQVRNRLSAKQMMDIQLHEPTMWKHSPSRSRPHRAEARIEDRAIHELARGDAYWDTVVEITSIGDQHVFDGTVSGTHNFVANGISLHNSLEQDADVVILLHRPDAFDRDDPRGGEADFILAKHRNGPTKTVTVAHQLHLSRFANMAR
# CAAX prenyl protease 2 [7] = biological target: T4, CAAX prenyl protease 2 (Saccharomyces cerevisiae S288c, UniProt Q03530); format: biochemical
# T4 sequence (Q03530 whole entry): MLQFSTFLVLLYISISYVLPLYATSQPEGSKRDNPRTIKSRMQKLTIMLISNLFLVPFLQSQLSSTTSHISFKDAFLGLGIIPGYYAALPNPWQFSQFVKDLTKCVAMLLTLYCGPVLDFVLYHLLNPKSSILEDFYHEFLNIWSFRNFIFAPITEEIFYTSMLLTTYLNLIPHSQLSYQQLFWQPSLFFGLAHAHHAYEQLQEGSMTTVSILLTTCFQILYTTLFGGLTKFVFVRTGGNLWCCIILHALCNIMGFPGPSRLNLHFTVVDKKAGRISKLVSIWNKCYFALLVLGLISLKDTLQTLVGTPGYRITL
# [8] = mammalian cell cytotoxicity, dose response, cytotoxicity control, plate reader, cherry-pick samples (AID 504397); format: functional, cell-based
# [9] = biological target: Nucleotide-binding oligomerization domain-containing protein 1 (Homo sapiens, UniProt Q9Y239); experiment: NOD1 signaling inhibitors, SAR follow-up, revised (AID 2333); format: functional
# Tumor necrosis factor = Tumor necrosis factor (Homo sapiens, UniProt P01375); experiment: TNFa-triggered NF-kB activation inhibitors, SAR follow-up, cell-based, revised (AID 2337); format: functional
# HEK293 = experiment: cells; settings: Homo sapiens;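 also: cells exposed to compound for 14 hours overnight before viability readout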
# [10] = biological target: Voltage-dependent T-type calcium channel subunit alpha-1H (Homo sapiens, UniProt O95180); experiment: Cav3.2 T-type channel blockers, cell-based, SynthLib3 library, HEK293 Cav3.2, fluorescence (AID 493041); format: functional
# [11] = biological target: T5, Delta-type opioid receptor (Homo sapiens, UniProt P41143); experiment: HTS Image-Based Screen for Agonists of the DOR Receptor. [Related pubchem assays (depositor defined):AID1777, AID1786, AID2133]; format: functional
# [12] = biological target: T5, Delta-type opioid receptor; experiment: HTS Image-Based Screen for Antagonists of the DOR Receptor. [Related pubchem assays (depositor defined):AID1777, AID1785, AID1786, AID2133]; format: functional
# Mu-type opioid receptor = Mu-type opioid receptor (Homo sapiens, UniProt P35372); experiment: HTS Image-Based Screen for Agonists of the MOR Receptor. [Related pubchem assays (depositor defined):AID1777, AID1785, AID1786, AID2133]; format: functional;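 also: imaging of beta-arrestin GFP recruitment into spots after receptor activation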
# Beta-galactosidase = Beta-galactosidase (Escherichia coli, UniProt Q8VNN2); format: functional
# [13] = biological target: T6, Kappa-type opioid receptor (Homo sapiens, UniProt P41145); format: functional
# [14] = biological target: T6, Kappa-type opioid receptor; format: functional; remark: listed apart in the source
# T6 sequence (P41145 whole entry): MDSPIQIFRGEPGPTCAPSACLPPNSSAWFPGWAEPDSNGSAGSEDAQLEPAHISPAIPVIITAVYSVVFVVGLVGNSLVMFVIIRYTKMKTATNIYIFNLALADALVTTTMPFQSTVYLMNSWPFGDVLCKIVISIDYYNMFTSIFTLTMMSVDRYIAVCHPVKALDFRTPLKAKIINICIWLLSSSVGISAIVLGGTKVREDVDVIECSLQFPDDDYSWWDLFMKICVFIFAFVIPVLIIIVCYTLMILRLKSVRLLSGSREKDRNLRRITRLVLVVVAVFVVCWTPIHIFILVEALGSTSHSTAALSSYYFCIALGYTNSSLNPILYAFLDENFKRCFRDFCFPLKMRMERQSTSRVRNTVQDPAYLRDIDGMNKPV
# T5 sequence (P41143 whole entry): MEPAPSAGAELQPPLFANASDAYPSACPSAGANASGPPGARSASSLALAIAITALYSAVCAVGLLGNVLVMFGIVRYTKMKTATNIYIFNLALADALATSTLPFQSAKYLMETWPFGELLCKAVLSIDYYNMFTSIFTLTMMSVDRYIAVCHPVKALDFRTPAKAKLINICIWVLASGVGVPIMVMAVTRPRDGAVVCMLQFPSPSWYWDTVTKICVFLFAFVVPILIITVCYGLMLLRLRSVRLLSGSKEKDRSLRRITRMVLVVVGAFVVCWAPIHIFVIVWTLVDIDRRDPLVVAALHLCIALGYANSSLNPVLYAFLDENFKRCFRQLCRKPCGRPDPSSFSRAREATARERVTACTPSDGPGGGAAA
# Sequence of Integrin alpha-4 (P13612 whole entry): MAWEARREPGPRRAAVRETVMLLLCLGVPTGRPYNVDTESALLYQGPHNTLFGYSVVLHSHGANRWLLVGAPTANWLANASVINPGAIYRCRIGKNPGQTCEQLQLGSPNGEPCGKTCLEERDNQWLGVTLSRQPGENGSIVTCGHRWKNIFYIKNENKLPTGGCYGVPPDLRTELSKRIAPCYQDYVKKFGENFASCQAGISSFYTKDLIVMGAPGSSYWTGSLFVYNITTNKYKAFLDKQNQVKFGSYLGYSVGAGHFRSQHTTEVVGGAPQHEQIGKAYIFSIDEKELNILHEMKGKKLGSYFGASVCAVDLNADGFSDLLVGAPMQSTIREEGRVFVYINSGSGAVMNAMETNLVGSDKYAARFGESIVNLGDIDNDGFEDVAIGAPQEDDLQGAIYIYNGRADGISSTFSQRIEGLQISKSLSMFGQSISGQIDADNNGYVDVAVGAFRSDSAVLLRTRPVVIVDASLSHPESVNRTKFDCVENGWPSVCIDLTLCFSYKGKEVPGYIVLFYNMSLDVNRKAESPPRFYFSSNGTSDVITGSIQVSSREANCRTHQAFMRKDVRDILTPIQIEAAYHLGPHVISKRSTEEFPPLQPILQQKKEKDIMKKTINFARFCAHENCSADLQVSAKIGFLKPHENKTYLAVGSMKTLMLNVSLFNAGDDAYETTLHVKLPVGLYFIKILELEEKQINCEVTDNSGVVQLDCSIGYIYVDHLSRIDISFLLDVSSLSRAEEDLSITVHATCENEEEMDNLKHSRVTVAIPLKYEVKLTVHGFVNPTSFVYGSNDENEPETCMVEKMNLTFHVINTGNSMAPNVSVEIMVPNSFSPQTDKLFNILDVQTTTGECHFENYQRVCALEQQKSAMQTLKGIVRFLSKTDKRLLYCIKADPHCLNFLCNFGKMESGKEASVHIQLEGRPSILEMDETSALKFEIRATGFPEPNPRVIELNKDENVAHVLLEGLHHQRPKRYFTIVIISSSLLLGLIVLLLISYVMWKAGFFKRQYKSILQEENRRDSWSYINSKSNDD
# Sequence of Mu-type opioid receptor (P35372 whole entry): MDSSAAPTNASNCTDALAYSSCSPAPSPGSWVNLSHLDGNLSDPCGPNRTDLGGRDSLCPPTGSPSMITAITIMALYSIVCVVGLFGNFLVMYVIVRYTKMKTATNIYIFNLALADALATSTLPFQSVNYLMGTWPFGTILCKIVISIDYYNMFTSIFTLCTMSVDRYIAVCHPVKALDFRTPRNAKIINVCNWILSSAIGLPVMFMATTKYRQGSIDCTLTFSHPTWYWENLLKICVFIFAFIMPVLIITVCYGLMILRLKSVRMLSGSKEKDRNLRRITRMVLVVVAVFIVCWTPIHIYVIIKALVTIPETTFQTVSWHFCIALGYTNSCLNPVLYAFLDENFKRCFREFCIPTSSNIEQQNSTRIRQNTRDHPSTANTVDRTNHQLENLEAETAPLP
# Sequence of Beta-galactosidase (Q8VNN2 whole entry): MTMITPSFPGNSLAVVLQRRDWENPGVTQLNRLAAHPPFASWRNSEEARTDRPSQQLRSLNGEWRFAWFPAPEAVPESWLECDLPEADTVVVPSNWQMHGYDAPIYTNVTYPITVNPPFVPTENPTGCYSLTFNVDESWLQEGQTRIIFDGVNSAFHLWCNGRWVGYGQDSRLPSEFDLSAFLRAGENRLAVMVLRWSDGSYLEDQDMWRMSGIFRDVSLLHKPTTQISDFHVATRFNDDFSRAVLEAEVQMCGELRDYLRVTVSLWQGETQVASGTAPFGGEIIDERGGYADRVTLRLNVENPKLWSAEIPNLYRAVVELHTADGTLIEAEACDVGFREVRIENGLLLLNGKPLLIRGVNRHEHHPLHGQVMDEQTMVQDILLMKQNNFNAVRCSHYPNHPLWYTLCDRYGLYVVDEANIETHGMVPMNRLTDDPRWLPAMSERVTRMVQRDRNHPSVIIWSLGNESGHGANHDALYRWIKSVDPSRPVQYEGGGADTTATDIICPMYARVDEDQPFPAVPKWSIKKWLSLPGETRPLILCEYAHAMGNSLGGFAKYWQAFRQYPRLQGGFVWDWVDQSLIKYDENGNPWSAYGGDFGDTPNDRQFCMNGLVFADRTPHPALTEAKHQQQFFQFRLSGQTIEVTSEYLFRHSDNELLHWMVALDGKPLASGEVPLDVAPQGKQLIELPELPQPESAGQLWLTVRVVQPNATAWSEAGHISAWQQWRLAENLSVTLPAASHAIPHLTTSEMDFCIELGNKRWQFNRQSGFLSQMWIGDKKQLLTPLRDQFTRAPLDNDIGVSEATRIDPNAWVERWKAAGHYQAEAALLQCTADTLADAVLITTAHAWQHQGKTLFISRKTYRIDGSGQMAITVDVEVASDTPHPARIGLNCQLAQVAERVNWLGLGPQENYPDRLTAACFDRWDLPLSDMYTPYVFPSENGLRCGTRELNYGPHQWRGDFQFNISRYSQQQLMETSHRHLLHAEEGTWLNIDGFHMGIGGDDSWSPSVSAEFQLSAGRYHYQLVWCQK
# Sequence of G-protein coupled receptor 35 (Q9HC97 whole entry): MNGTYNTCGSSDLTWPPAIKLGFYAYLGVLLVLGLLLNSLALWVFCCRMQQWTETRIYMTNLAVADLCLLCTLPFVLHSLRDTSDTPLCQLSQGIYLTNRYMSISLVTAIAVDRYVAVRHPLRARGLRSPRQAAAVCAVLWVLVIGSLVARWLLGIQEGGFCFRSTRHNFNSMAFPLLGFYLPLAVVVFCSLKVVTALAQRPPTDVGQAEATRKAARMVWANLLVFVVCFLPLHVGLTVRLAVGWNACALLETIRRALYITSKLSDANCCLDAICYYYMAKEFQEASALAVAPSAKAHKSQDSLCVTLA
# Sequence of Nucleotide-binding oligomerization domain-containing protein 1 (Q9Y239 whole entry, the tested form may be a part): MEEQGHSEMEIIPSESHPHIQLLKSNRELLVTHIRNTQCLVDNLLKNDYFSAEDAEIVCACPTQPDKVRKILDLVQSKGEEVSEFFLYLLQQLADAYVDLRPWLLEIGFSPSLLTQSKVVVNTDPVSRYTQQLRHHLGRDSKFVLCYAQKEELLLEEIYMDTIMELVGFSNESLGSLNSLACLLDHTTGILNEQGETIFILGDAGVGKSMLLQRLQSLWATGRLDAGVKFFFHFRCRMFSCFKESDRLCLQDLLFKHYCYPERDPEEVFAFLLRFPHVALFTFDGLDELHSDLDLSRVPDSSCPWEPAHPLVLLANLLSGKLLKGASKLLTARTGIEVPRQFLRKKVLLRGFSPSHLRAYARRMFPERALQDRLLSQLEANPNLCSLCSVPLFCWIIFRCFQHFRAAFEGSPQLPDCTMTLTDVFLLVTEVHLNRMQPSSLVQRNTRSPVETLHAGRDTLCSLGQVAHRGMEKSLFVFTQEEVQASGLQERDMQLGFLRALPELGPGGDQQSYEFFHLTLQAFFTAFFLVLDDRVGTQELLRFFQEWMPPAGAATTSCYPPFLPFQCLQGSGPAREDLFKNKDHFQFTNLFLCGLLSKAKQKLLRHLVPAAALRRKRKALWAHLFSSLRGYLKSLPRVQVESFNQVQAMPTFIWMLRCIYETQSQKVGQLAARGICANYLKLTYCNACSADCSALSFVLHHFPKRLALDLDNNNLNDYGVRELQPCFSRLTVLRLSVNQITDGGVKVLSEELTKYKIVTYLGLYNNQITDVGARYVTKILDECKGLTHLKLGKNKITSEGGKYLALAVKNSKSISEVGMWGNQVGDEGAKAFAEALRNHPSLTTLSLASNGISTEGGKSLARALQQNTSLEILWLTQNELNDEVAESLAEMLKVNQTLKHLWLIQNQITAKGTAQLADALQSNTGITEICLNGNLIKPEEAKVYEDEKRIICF
# Sequence of Tumor necrosis factor (P01375 whole entry): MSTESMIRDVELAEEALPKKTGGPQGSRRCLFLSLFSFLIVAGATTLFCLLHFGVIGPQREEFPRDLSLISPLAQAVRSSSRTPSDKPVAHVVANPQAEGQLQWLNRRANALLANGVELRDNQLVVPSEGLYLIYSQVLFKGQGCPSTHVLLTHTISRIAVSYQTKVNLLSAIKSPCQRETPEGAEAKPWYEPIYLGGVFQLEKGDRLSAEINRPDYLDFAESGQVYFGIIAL
smiles,measurement,setting,value
CC(NC(=O)/C(C#N)=C/c1ccc(Cl)c([N+](=O)[O-])c1)c1ccccc1 (stereo not given),EC50,[1],13.5 µM (active)
same,IC50,[2],2.53 µM (active)
same,IC50,[3],8.95 µM (active)
same,EC50,[4],17.8 µM (active)
same,EC50,Protein RecA,5.2 µM (active)
same,EC50,Integrin alpha-4,2.42 µM (active)
same,AC50,CAAX prenyl protease 2 [5],8.59 µM (active)
same,AC50,[6],4.02 µM (active)
same,AC50,CAAX prenyl protease 2 [7],2.44 µM (active)
same,AC50,[8],18.2 µM (active)
CC(=O)N1c2ccc(S(=O)(=O)N3CCN(c4ccc(C)cc4)CC3)cc2CC1C (stereo not given),IC50,[9],5.76 µM (active)
same,IC50,Tumor necrosis factor,4.32 µM (active)
same,IC50,HEK293,> 20 µM (inactive)
CCC(CC)CN1CCC[C@H](NC(=O)COc2ccc(F)c(Cl)c2)C1,EC50,[10],10 µM (active)
COC(=O)c1ccc(C)c(-n2c(=O)n(Cc3ccccc3)c(=O)c3[nH]cnc32)c1,EC50,[11],> 32 µM (inactive)
same,IC50,[12],> 32 µM (inactive)
same,EC50,Mu-type opioid receptor,> 32 µM (inactive)
same,EC50,Beta-galactosidase,11.5 µM (active)
same,IC50,[13],6.39 µM (active)
same,IC50,[14],> 32 µM
